Laboratory results as given in US10226448B2, “3-(1H-pyrrolo[3,2-C]pyridin-2-yl)-1H-pyrazolo[3,4-B]pyridines and therapeutic uses thereof” (Samumed, LLC, priority 2015, dated 2019).

Experiments:
Format in all cases: cell-based
[1] = system: primary human mesenchymal stem cells (hMSCs); assay: Induction of chondrogenesis in primary human mesenchymal stem cells (chondrogenic nodules, Rhodamine B / Nile Red); conditions: 6 days; for Emax: relative to TGF-β3 (10 ng/mL) positive control, read-out: Max. Activity as % TGF-β3 activity; for EC50: concentration required to induce 50% levels of chondrogenesis vs TGF-β3, read-out: Conc (nM) of 50% TGF-β3 activity
Outline: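 Primary hMSCs at passage 3–6 were fixed with 4% formaldehyde and stained with 2 μg/mL Rhodamine B plus 20 μM Nile Red to image chondrogenic nodules. Nodule counts normalized to the mean of 3 DMSO wells (fold change), averaged over 3 replicate wells per concentration. TGF-β3 served as positive control; EC50, maximum activity and the dose giving maximum are reported.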

IL-6 in THP-1 cells = assay: IL-6 inhibition in LPS-stimulated THP-1 human monocyte cells (HTRF); conditions: for EC50: IL-6 inhibition, LPS-stimulated THP-1 cells, HTRF, 10-point dose-response starting from 10 μM; for inhibition at 10 µM: THP-1, read-out: percentage in parentheses beside EC50 >10
Outline: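 THP-1 cells were serum-reduced (1% FBS, 24 h), plated at 5000 cells/well with compound for 2 h at 37 °C, then stimulated 22 h with 500 ng/mL LPS. Secreted IL-6 was quantified by HTRF (665/620 nm ratio). Signals were normalised to DMSO, and EC50 was fitted by four-parameter nonlinear regression.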

SW480 colon cancer cells = assay: Cell viability assay (CellTiter-Blue) in SW480 colon cancer cells; conditions: Homo sapiens; for EC50: 96 h, SW480 cell viability, four days, CellTiter-Blue; for inhibition at 10 µM: SW480, read-out: percent inhibition at 10 μM
Outline: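 Fluorescence from resazurin reduced to resorufin by metabolically active cells was the read-out, taken after ~3 h with CellTiter-Blue.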

[2] = system: Wnt activity (Sp5-Luc reporter, TCF/LEF binding sites) in SW480 colon carcinoma cells; assay: Wnt activity screening assay: Sp5-Luc reporter gene assay in SW480 cells; conditions: Homo sapiens; for EC50: Sp5-Luc reporter, SW480 cells, overnight incubation
Outline: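 SW480 cells stably carrying a luciferase reporter under a human Sp5 promoter with eight TCF/LEF sites, plated at 4,000 cells/well in 1% FBS medium. Luminescence read with BrightGlo, normalized to DMSO-treated cells; EC50 from four-parameter variable-slope nonlinear regression.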

[3] = system: LL29 cells (primary human fibroblasts derived from IPF patients), α-smooth muscle actin; assay: Inhibition of the fibrotic process: αSMA staining in TGF-β1 treated primary human fibroblasts from IPF patients (LL29 cells); conditions: Fibroblast; for EC50: 96 h, LL29 cells, TGF-β1 20 ng/mL, 4 days, % αSMA positive cells; for inhibition at 10 µM: read-out: percent inhibition at 10 μM
Outline: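 Read-out after 4-day incubation: αSMA staining with 1 μM SYTOX green nuclear counterstain (30 min, room temperature). Cells were LL29 primary fibroblasts from IPF patients, in 1% FBS F12, exposed to TGF-β1 with test compound, referenced to TGF-β1/DMSO control wells.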

Row | EC50 (IL-6 in THP-1 cells) | EC50 (SW480 colon cancer cells) | EC50 [2] | EC50 [1] | SMILES | Emax [1] | EC50 [3] | inhibition at 10 µM [3] | inhibition at 10 µM (SW480 colon cancer cells) | inhibition at 10 µM ([2]; SW480, read-out: percent inhibition at 10 μM) | inhibition at 10 µM (IL-6 in THP-1 cells)
1 | 447 nM | 1520 nM | 1400 nM |  | O=C(Nc1cncc(-c2cnc3[nH]nc(-c4cc5cnccc5[nH]4)c3c2)c1)C1CCCCC1 [Compound 275, N-(5-(3-(1H-Pyrrolo[3,2-c]pyridin-2-yl)-1H-pyrazolo[3,4-b]pyridin-5-yl)pyridin-3-yl)cyclohexanecarboxamide] | 9% | 1380 nM |  |  |  | 
2 | 179 nM | 489 nM | 473 nM | 100 nM | O=C(Nc1cncc(-c2cnc3[nH]nc(-c4cc5c(-c6cccs6)nccc5[nH]4)c3c2)c1)C1CCC1 [Compound 357, N-(5-(3-(4-(Thiophen-2-yl)-1H-pyrrolo[3,2-c]pyridin-2-yl)-1H-pyrazolo[3,4-b]pyridin-5-yl)pyridin-3-yl)cyclobutanecarboxamide] | 82% | 609 nM |  |  |  | 
3 | 537 nM | 4090 nM | 1960 nM | 300 nM | CC(C)CC(=O)Nc1cncc(-c2cnc3[nH]nc(-c4cc5c(-c6cc(F)cc(CNS(C)(=O)=O)c6)nccc5[nH]4)c3c2)c1 [Compound 478, N-(5-(3-(4-(3-Fluoro-5-(methylsulfonamidomethyl)phenyl)-1H-pyrrolo[3,2-c]pyridin-2-yl)-1H-pyrazolo[3,4-b]pyridin-5-yl)pyridin-3-yl)-3-methylbutanamide] | 52% | > 10000 nM | 0% |  |  | 
4 | 307 nM | 1500 nM | 662 nM | 900 nM | Cc1ccncc1-c1cnc2[nH]nc(-c3cc4c(-c5cc(F)cc(CNS(C)(=O)=O)c5)nccc4[nH]3)c2c1 [Compound 481, N-(3-Fluoro-5-(2-(5-(4-methylpyridin-3-yl)-1H-pyrazolo[3,4-b]pyridin-3-yl)-1H-pyrrolo[3,2-c]pyridin-4-yl)benzyl)methanesulfonamide] | 173% | 600 nM |  |  |  | 
5 | 2240 nM | > 10000 nM | > 10000 nM | 300 nM | CCNCc1cncc(-c2cnc3[nH]nc(-c4cc5c(-c6cc(F)cc(CNS(C)(=O)=O)c6)nccc5[nH]4)c3c2)c1 [Compound 482, N-(3-(2-(5-(5-((Ethylamino)methyl)pyridin-3-yl)-1H-pyrazolo[3,4-b]pyridin-3-yl)-1H-pyrrolo[3,2-c]pyridin-4-yl)-5-fluorobenzyl)methanesulfonamide] | 61% | > 10000 nM | 0% | 16.6% | 8.8% | 
6 | > 10000 nM | 1340 nM | 486 nM | 100 nM | CC(C)Nc1cncc(-c2cnc3[nH]nc(-c4cc5c(-c6cc(F)cc(CNS(C)(=O)=O)c6)nccc5[nH]4)c3c2)c1 [Compound 488, N-(3-Fluoro-5-(2-(5-(5-(isopropylamino)pyridin-3-yl)-1H-pyrazolo[3,4-b]pyridin-3-yl)-1H-pyrrolo[3,2-c]pyridin-4-yl)benzyl)methanesulfonamide] | 66% | 860 nM |  |  |  | 54.6%
7 | 124 nM | > 10000 nM | 3640 nM | 300 nM | CS(=O)(=O)NCc1cc(F)cc(-c2nccc3[nH]c(-c4n[nH]c5ncc(-c6cncc(NC(=O)C7CCC7)c6)cc45)cc23)c1 [Compound 497, N-(5-(3-(4-(3-Fluoro-5-(methylsulfonamidomethyl)phenyl)-1H-pyrrolo[3,2-c]pyridin-2-yl)-1H-pyrazolo[3,4-b]pyridin-5-yl)pyridin-3-yl)cyclobutanecarboxamide] | 52% | > 10000 nM | 0% | 48% |  | 
8 | 3750 nM | > 10000 nM | 3630 nM |  | CS(=O)(=O)NCc1cc(F)cc(-c2nccc3[nH]c(-c4n[nH]c5ncc(-c6cncc(NC(=O)C7CCCCC7)c6)cc45)cc23)c1 [Compound 499, N-(5-(3-(4-(3-Fluoro-5-(methylsulfonamidomethyl)phenyl)-1H-pyrrolo[3,2-c]pyridin-2-yl)-1H-pyrazolo[3,4-b]pyridin-5-yl)pyridin-3-yl)cyclohexane carboxamide] | 120% | > 10000 nM | 23.6% | 35.5% |  | 
9 | 101 nM | 261 nM | 56 nM |  | Fc1ccccc1-c1nccc2[nH]c(-c3n[nH]c4ncc(-c5cn[nH]c5)cc34)cc12 [Compound 539, 3-(4-(2-Fluorophenyl)-1H-pyrrolo[3,2-c]pyridin-2-yl)-5-(1H-pyrazol-4-yl)-1H-pyrazolo[3,4-b]pyridine] | 49% | 76 nM |  |  |  | 
10 | 355 nM | 975 nM | 318 nM |  | Cn1cc(-c2cnc3[nH]nc(-c4cc5c(-c6cccnc6)nccc5[nH]4)c3c2)cn1 [Compound 556, 5-(1-Methyl-1H-pyrazol-4-yl)-3-(4-(pyridin-3-yl)-1H-pyrrolo[3,2-c]pyridin-2-yl)-1H-pyrazolo[3,4-b]pyridine] | 33% | 98 nM |  |  |  | 
11 | > 10000 nM | > 10000 nM | 6860 nM |  | CS(=O)(=O)NCc1cc(F)cc(-c2nccc3[nH]c(-c4n[nH]c5ncc(-c6cncc(OCc7ccccc7)c6)cc45)cc23)c1 [Compound 774, N-(3-(2-(5-(5-(Benzyloxy)pyridin-3-yl)-1H-pyrazolo[3,4-b]pyridin-3-yl)-1H-pyrrolo[3,2-c]pyridin-4-yl)-5-fluorobenzyl)methanesulfonamide] | 21% | 2160 nM |  | 30.2% |  | 48.3%
